According to paper PMC3466204 (PLoS ONE, 2012):
Ends that are not written are not given here.

System: Lactococcus lactis HP
Test: Agarose-based assay of cell-free supernatants of S29X producing strains
Conditions: for Zone Diameter (mm): agarose (1%) GM17 assay, 10 µl cell-free supernatant of overnight producing culture in 4.6 mm wells, L. lactis HP, 30°C; for % difference (zone relative to wild type): agarose assay of supernatants against L. lactis HP, wild type serine = 100
Method: Agarose-based deferred antagonism assays were carried out as follows: GM17/LB (0.03%) underlay was prepared with 10 mM sodium phosphate buffer (SPB) at pH 7.4 to which was added agarose (1% w/v agarose), autoclaved and cooled to 50°C. Bacteria grown to mid-logarithmic phase were harvested by centrifugation and washed with 10 mM SPB at pH 7.4. Bacteria were then added to 15 mls cooled underlay medium to reach a concentration of 2×10^7 colony-forming units (CFU)/mL. The inoculated medium was rapidly transferred into sterile Petri plates, allowed to solidify and dried. Wells (4.6 mm in diameter) were then made in the seeded plates. 10 µl volumes of cell-free supernatant from overnight nisin derivative producing cultures or resuspended purified peptides were then added to the wells and the plates incubated at 30°C (L. lactis) or 37°C (Gram positive strains) or RT (Gram negative strains) for 3 hours. Polymyxin B (Sigma Aldrich) was used at a concentration of 20 µg/ml. The plates were then overlaid with 15 mls of autoclaved double strength GM17 (L. lactis) or LB (Gram negatives) agarose (1% w/v agarose) overlay medium precooled to 50°C. The plates were then incubated overnight at the relevant temperature.

S29C: nisin A S29 saturation derivative, cysteine at position 29 (ITSISLCTPGCKTGALMGCNMKTATCHCCIHVSK; not fully specified; cysteine pairing not given here; UniProt P13068 24-57, looked up, variant S29C)
Zone Diameter (mm): 10.5±1.0 mm | % difference (zone relative to wild type): 69%

S29F: nisin A S29 saturation derivative, phenylalanine at position 29 (ITSISLCTPGCKTGALMGCNMKTATCHCFIHVSK; not fully specified (bridges); also: lantibiotic nisin A (lanthionine rings, dehydrated residues not placed); UniProt P13068 24-57, looked up, variant S29F)
Zone Diameter (mm): 11.0±1.0 mm | % difference (zone relative to wild type): 72%

S29H: nisin A S29 saturation derivative, histidine at position 29 (ITSISLCTPGCKTGALMGCNMKTATCHCHIHVSK; not fully specified (bridges); also: lantibiotic nisin A (lanthionine rings, dehydrated residues not placed); UniProt P13068 24-57, looked up, variant S29H)
Zone Diameter (mm): 10.9±0.3 mm | % difference (zone relative to wild type): 72%

S29I: nisin A S29 saturation derivative, isoleucine at position 29 (ITSISLCTPGCKTGALMGCNMKTATCHCIIHVSK; not fully specified; cysteine pairing not given here; UniProt P13068 24-57, looked up, variant S29I)
Zone Diameter (mm): 9.9±1.0 mm | % difference (zone relative to wild type): 65%

S29K: nisin A S29 saturation derivative, lysine at position 29 (ITSISLCTPGCKTGALMGCNMKTATCHCKIHVSK; not fully specified (bridges); also: lantibiotic nisin A (lanthionine rings, dehydrated residues not placed); UniProt P13068 24-57, looked up, variant S29K)
Zone Diameter (mm): 9.9±1.0 mm | % difference (zone relative to wild type): 64%

S29L: nisin A S29 saturation derivative, leucine at position 29 (ITSISLCTPGCKTGALMGCNMKTATCHCLIHVSK; not fully specified; cysteine pairing not given here; UniProt P13068 24-57, looked up, variant S29L)
Zone Diameter (mm): 12.7±0.7 mm | % difference (zone relative to wild type): 84%

S29N: nisin A S29 saturation derivative, asparagine at position 29 (ITSISLCTPGCKTGALMGCNMKTATCHCNIHVSK; not fully specified; cysteine pairing not given here; UniProt P13068 24-57, looked up, variant S29N)
Zone Diameter (mm): 12.6±1.0 mm | % difference (zone relative to wild type): 83%

S29P: nisin A S29 saturation derivative, proline at position 29 (ITSISLCTPGCKTGALMGCNMKTATCHCPIHVSK; not fully specified (bridges); also: lantibiotic nisin A (lanthionine rings, dehydrated residues not placed); UniProt P13068 24-57, looked up, variant S29P)
Zone Diameter (mm): 13.7±1.0 mm | % difference (zone relative to wild type): 89%

S29Q: nisin A S29 derivative, glutamine at position 29, made by site-directed mutagenesis (ITSISLCTPGCKTGALMGCNMKTATCHCQIHVSK; not fully specified; cysteine pairing not given here; UniProt P13068 24-57, looked up, variant S29Q)
Zone Diameter (mm): 15.3±0.1 mm | % difference (zone relative to wild type): 100%

S29R: nisin A S29 saturation derivative, arginine at position 29 (ITSISLCTPGCKTGALMGCNMKTATCHCRIHVSK; not fully specified (bridges); also: lantibiotic nisin A (lanthionine rings, dehydrated residues not placed); UniProt P13068 24-57, looked up, variant S29R)
Zone Diameter (mm): 11.0±0.6 mm | % difference (zone relative to wild type): 72%

S29T: nisin A S29 saturation derivative, threonine at position 29 (ITSISLCTPGCKTGALMGCNMKTATCHCTIHVSK; not fully specified (bridges); also: lantibiotic nisin A (lanthionine rings, dehydrated residues not placed); UniProt P13068 24-57, looked up, variant S29T)
Zone Diameter (mm): 12.1±0.9 mm | % difference (zone relative to wild type): 79%

S29V: nisin A S29 saturation derivative, valine at position 29 (ITSISLCTPGCKTGALMGCNMKTATCHCVIHVSK; not fully specified (bridges); also: lantibiotic nisin A (lanthionine rings, dehydrated residues not placed); UniProt P13068 24-57, looked up, variant S29V)
Zone Diameter (mm): 11.6±0.4 mm | % difference (zone relative to wild type): 76%

S29W: nisin A S29 saturation derivative, tryptophan at position 29 (ITSISLCTPGCKTGALMGCNMKTATCHCWIHVSK; not fully specified; cysteine pairing not given here; UniProt P13068 24-57, looked up, variant S29W)
Zone Diameter (mm): 12.1±1.2 mm | % difference (zone relative to wild type): 79%

S29Y: nisin A S29 saturation derivative, tyrosine at position 29 (ITSISLCTPGCKTGALMGCNMKTATCHCYIHVSK; not fully specified (bridges); also: lantibiotic nisin A (lanthionine rings, dehydrated residues not placed); UniProt P13068 24-57, looked up, variant S29Y)
Zone Diameter (mm): 10.6±0.6 mm | % difference (zone relative to wild type): 70%
